The values below come from patent US7659284B2, “Thiazolopyridine kinase inhibitors” (Janssen Pharmaceutica NV, priority 2004, dated 2010).

“And” between values parts separate entries of the source, which are not always exact repeats. Equal entries are not always repeated.

Holding throughout (assay type): biochemical
One test concerns the target T1, Lyn kinase (human) (Homo sapiens, UniProt P07948).
T1 construct: purchased Upstate Biotechnology, Lake Placid, N.Y
As to the kind of experiment: Lyn Kinase Assay (h). As to conditions: for inhibition at 1 µM: test concentration (1) 1 μM; for IC50: (h) human Lyn, 5 μM ATP. The procedure:
A mixture of a 10× kinase buffer (500 mM MOPS at pH 7.5, 1 mM EGTA, 1 mM Sodium Vanadate, 1% β-mercaptoethanol and 100 mM Magnesium Acetate), ATP (5 μM final from a 10 mM stock), polyGluTyr (0.1 mg/mL final from a 1 mg/mL stock), γ-^33P ATP (10 μCi/μL stock) and water (20 μL/well) was added to each well of a Streptavidin Flashplate.
Test compound in 100% DMSO (0.5 μL) was added to the appropriate wells. Diluted Lyn kinase (human) (Upstate Biotechnology, Lake Placid, N.Y.) (diluted in a buffer consisting of 50 mM Tris at pH 7.5, 0.1 mM EGTA, Sodium Vanadate (0.1 mM), β-mercaptoethanol (0.1%) and 1 mg/mL bovine serum albumin) (2.5 μL) was added to the wells to initiate the reactions.
The reaction plates were incubated at 30° C. for 40 min. The reaction was terminated by the addition of a 3% phosphoric acid solution (5 μL). The reaction product (10 μL) was spotted onto a P30 filtermat and washed for 5 minutes in phosphoric acid (75 mM). The wash sequence was repeated two more times, followed with one final wash in methanol. The plates were then dried, sealed and read on the TopCount scintillation counter after adding 30 μL scintillation fluid.
The percent inhibitions and IC50 values were derived according to the procedure described in Example 52. For those compounds without an IC50, the percent inhibition results are shown at a test concentration of ^(1) 1 μM or ^(2) 1.6 μM.

A further test addresses T2, HER-2 (Homo sapiens, UniProt P04626).
T2 construct: the nucleotides encoding amino acids 679 to 1255 of HER-2; HIS6 with thrombin site (N); purchased Proqinase (Freiburg, Germany)
As to the kind of experiment: HER-2 Kinase Assay. As to conditions: GST-HER2 kinase, 1 μM ATP. The procedure:
The HER-2 kinase used was purified at Proqinase (Freiburg, Germany) from a construct that consisted of a fusion of GST (Glutathione-S-Transferase), HIS6-Thrombin and the nucleotides encoding amino acids 679 to 1255 of HER-2.
A mixture of a 10× kinase reaction buffer (600 mM Hepes at pH 7.5, 30 mM Magnesium Chloride, 0.03 mM Sodium Vanadate and 500 μg/mL PEG 20,000), DTT (1.2 mM final from a 10 mM stock), ATP (1 μM from a 10 mM stock), biotinylated polyGluTyr (1.5 ng/μL final from stock of 1 μg/μL prepared by Upstate Biotechnologies, Lake Placid, N.Y.), Manganese Chloride (3 mM final from a 1 M stock), γy-^33P-ATP (10 μCi/μL stock) and water (70 μL/well) was added to each well of a Streptavidin Flashplate (Cat. # SMP103, NEN, Boston, Mass.).
Test compound stock (1 μL) was added to the appropriate wells. Diluted GSTHER2 kinase (6.7 ng/μL diluted into 50 mM Tris-HCl at pH 8.0 and 0.1% bovine serum albumin) (30 μL) was added (total volume of 200 ng/well) to initiate the reactions.
The reaction plates were incubated at 30° C. for 1 hr. The reaction was terminated by aspirating the reaction mixture from the plate wells and washing the wells three times with a 1×PBS stop buffer (300 μL) and 100 mM EDTA. After the final wash, the same stop buffer (200 μL) was again added to the wells. The plates were then sealed and read on the TopCount scintillation counter.
The IC50 was derived according to the procedure described in Example 52. For those compounds without an IC50, the percent inhibition results are shown at a test concentration of 1 μM.

A further test has as its target T3, EGFR (Homo sapiens, UniProt P00533).
T3 construct: started at nucleotide 2189 (corresponding to amino acid 667) and ended at the termination codon; made in house; host or cells: Sf9 insect cells (baculovirus)
The test is described as follows: EGFR Kinase Assay (GST-EGFR, 33P-ATP, Streptavidin Flashplate). The note with it: for IC50: GST-EGFR intracellular portion, 5 μM ATP. An excerpt:
The EGFR kinase used was a fusion of Glutathione-S-Transferase (GST) and a PCR amplified intracellular portion of EGFR (NM_005228). The intracellular portion of EGFR started at nucleotide 2189 (corresponding to amino acid 667) and ended at the termination codon. The portion was PCR amplified with primers that added the lambda attB sequences to each end, recombined into an entry vector, then into a GST destination vector (as described in Gateway Technologies Manual by Invitrogen Corporation, Carlsbad, Calif.).
The destination vector was recombined in the DH10BAC strain of bacteria to produce a bacmid. The bacmid was transfected into Sf 9 cells and the supernatant containing the baculovirus was collected. The GSTEGFR protein was purified using large cultures of Sf 9 cells infected with stock virus. After an appropriate period of time, the cells were collected and lysed. The GSTEGFR was then purified from the lysate on Glutathione-Sepharose columns (as described by Amersham Biosciences, Buckinghamshire, United Kingdom).
The EGFR substrate was prepared by biotinylating polyGluTyr (128 mg) (Sigma, St. Louis, Mo.) in a 1×PBS buffer incubated together with a 12-fold molar excess of Sulfo-NHS-LC-Biotin on ice for at least 2 hrs. The free biotin was separated from the biotinylated polyGluTyr on a gel filtration column.
A mixture of a 10× kinase buffer (500 mM Tris at pH 8.0, 100 mM Magnesium Chloride and 1 mM Sodium Vanadate), DTT (1 mM final from 500 mM stock), ATP (5 μM final from 10 mM stock), biotinylated polyGluTyr (10 μg/μL stock), γ-^33P ATP (10 μCi/μL stock) and water was added to each well (90 μL/well) of a Streptavidin Flashplate (Perkin Elmer, Wellesley, Mass.).
Test compound in 100% DMSO (2 μL) was added to the appropriate wells. Diluted GSTEGFR (1:300 dilution in 50 mM Tris at pH 8.0 and 0.1% bovine serum albumin) (10 μL) was added to the wells to initiate the reactions.
The plates were incubated at 30° C. for 1 hr with shaking. The reacted contents were removed and the plates were sequentially washed three times with a 1×PBS stop buffer (300 μL without Magnesium and Calcium) and 100 mM EDTA. After the final wash, the same stop buffer (200 μL) was added to the wells. The plates were then sealed and read on the TopCount scintillation counter.
Test compounds were assayed in triplicate at 16 concentrations at half-log dilutions starting at 200 uM. A maximum and minimum signal for the assay was determined on each plate. The percent inhibition of a test compound was calculated accord to the formula
For a series of test concentrations, the IC50 was derived by graphing percent inhibition against the log of the concentrations tested for a given compound. For those compounds without an IC50, the percent inhibition results are shown at a test concentration of 2 μM.

Another test has as its target T4, c-Src kinase (human) (Homo sapiens, UniProt P12931).
T4 construct: purchased Upstate Biotechnology, Lake Placid, N.Y
The test is described as follows: c-Src Kinase Assay. The note with it: for inhibition at 1 µM: test concentration (1) 1 μM, read-out: c-SRC percent inhibition; for IC50: human c-Src, 5 μM ATP. The procedure: […] a 10× kinase buffer (80 mM MOPS at pH 7.0, 2 mM EDTA and 100 mM Magnesium Chloride), ATP (5 μM final from a 10 mM stock), a Cdc2 peptide KVEKIGEGTYGVVYK (100 μM final from a 2.5 mM stock), γ-^33P ATP (10 μCi/μL stock) and water (20 μL/well) was added to each well of a Streptavidin Flashplate.
Test compound in 100% DMSO (0.5 μL) was added to the appropriate wells. Diluted c-Src kinase (human) (Upstate Biotechnology, Lake Placid, N.Y.) (diluted in a buffer consisting of 20 mM MOPS at pH 7.0, 1 mM EDTA, β-mercaptoethanol (0.1%), Brij-35 (0.01%), glycerol (5%), and 1 mg/mL bovine serum albumin) (2.5 μL) was added to the wells to initiate the reactions. The reaction plates were incubated at 30° C. for 40 min. The reaction was terminated by the addition of a 3% phosphoric acid solution (5 μL). The reaction product (10 μL) was spotted onto a P30 filtermat and washed for 5 minutes in phosphoric acid (75 mM). The wash sequence was repeated two more times, followed with one final wash in methanol. The plates were then dried, sealed and read on the TopCount scintillation counter after adding 30 μL scintillation fluid.
The percent inhibitions and IC50 values were derived according to the procedure described in Example 52. For those compounds without an IC50, the percent inhibition results are shown at a test concentration of ^(1)1 μM or ^(2)1.6 μM.

The next test has as its target LYN (m) (Mus musculus, UniProt P25911). As to the kind of experiment: Lyn Kinase Assay (m). The note with it: for inhibition at 1 µM: test concentration (1) 1 μM, read-out: LYN percent inhibition (m).
[1] abbreviates: (h), read-out: LYN percent inhibition (h).

T2 sequence (P04626 679-1255): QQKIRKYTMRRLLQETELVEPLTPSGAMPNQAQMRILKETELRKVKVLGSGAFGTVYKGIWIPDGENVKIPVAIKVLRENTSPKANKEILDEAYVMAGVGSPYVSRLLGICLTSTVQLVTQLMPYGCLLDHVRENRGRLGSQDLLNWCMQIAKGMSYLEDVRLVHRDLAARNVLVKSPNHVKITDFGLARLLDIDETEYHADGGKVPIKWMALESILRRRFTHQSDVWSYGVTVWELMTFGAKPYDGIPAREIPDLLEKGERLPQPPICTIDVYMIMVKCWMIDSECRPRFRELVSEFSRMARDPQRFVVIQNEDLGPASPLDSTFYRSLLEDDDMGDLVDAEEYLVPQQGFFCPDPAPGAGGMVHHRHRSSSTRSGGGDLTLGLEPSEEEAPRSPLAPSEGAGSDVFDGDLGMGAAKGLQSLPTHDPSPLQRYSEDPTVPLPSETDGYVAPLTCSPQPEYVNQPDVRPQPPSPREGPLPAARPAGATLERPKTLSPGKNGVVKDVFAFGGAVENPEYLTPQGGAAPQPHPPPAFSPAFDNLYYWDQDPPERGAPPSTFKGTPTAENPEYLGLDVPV
T3 sequence (P00533 667-1210 limits assumed): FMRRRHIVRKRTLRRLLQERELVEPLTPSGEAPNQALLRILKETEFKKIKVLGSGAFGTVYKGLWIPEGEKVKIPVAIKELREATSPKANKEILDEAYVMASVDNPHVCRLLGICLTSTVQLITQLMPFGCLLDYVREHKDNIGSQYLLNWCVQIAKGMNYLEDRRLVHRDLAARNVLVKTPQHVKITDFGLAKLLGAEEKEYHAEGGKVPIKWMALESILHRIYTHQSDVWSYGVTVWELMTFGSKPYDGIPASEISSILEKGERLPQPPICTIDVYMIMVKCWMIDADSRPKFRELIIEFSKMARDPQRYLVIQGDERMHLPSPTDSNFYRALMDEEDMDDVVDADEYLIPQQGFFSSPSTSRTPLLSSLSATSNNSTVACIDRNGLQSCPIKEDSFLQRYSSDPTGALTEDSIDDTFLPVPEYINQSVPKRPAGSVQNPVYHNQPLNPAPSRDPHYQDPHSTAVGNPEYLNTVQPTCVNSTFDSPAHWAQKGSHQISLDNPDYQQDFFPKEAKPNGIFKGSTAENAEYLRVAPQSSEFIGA
T1 sequence (P07948 whole entry): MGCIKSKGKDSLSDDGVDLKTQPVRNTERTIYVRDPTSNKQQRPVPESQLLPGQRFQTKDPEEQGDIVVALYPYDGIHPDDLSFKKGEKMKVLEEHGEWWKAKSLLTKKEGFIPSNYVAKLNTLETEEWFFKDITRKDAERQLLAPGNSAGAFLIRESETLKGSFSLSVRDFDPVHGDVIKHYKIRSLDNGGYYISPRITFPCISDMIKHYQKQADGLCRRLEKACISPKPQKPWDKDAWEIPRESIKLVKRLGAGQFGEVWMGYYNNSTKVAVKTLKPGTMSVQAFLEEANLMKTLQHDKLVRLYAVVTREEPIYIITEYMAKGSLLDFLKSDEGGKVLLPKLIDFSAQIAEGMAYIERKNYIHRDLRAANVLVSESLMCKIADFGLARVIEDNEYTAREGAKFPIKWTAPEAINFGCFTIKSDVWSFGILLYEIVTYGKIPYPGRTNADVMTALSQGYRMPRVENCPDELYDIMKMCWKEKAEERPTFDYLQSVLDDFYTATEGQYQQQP
LYN (m), sequence (P25911 whole entry): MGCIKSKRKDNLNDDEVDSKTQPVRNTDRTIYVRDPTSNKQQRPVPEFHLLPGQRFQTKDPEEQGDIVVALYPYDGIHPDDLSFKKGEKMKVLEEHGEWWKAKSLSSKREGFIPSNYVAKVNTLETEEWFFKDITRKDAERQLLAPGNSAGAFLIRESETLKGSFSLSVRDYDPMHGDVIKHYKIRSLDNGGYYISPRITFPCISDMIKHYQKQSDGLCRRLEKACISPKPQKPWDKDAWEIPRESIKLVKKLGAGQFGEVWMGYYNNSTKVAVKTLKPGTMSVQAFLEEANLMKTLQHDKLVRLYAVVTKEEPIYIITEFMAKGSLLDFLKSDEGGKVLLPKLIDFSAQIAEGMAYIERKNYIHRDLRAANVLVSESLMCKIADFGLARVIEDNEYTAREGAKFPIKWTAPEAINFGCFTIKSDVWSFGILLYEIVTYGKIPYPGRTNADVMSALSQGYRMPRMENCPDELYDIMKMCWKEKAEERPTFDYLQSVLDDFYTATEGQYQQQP
T4 sequence (P12931 whole entry): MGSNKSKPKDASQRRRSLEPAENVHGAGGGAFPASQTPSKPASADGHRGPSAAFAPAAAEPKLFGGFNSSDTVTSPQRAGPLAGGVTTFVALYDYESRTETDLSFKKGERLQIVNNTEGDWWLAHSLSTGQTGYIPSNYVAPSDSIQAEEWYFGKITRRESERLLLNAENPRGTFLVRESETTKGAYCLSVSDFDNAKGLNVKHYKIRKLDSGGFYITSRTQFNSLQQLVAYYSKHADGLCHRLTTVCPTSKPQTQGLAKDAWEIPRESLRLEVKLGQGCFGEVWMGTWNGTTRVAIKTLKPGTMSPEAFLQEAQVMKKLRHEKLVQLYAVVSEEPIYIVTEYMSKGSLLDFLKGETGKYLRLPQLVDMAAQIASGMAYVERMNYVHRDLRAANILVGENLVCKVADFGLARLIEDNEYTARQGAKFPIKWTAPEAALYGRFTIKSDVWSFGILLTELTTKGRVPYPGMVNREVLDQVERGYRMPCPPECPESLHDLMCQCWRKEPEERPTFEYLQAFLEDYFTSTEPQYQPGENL

For the molecule `N#Cc1cnc2nc(Nc3ccc(CN4CCCC4)cc3)sc2c1Nc1ccc(OCc2cccc(F)c2)c(Cl)c1` [Cpd 24, 7-[3-chloro-4-(3-fluoro-benzyloxy)-phenylamino]-2-(4-pyrrolidin-1-ylmethyl-phenylamino)-thiazolo[4,5-b]pyridine-6-carbonitrile], the values for the inhibition at 1 µM on Lyn kinase (human) (setting [1]), on c-Src kinase (human) and at LYN (m) were -5%, 15% and 10%, respectively. In addition, the half-maximal inhibitory concentration (IC50) (as a rule, the point on the concentration scale where inhibition reaches its midpoint) against HER-2 was determined as 2060 nM; on EGFR it was 33.3 nM.
On to `C#Cc1cccc(Nc2c(C#N)cnc3nc(Nc4ccc(S(=O)(=O)NCCCN(C)C)cc4)sc23)c1` [Cpd 23, 4-[6-cyano-7-(3-ethynyl-phenylamino)-thiazolo[4,5-b]pyridin-2-ylamino]-N-(3-dimethylamino-propyl)-benzenesulfonamide], for which the values for the inhibition at 1 µM at Lyn kinase (human) (setting [1]), at c-Src kinase (human) and on LYN (m) were 8%, -2% and 42%, respectively. This molecule came in with an IC50 on EGFR of 20.4 nM.
As for `N#Cc1cnc2nc(Nc3ccc(CN4CCOCC4)cc3)sc2c1Nc1c(Cl)ccc2c1OCO2` [Cpd 20, 7-(5-chloro-benzo[1,3]dioxol-4-ylamino)-2-(4-morpholin-4-ylmethyl-phenylamino)-thiazolo[4,5-b]pyridine-6-carbonitrile], the IC50 was 11 nM against Lyn kinase (human); 378 nM and 941 nM against EGFR; 11 nM on c-Src kinase (human); 9 nM on LYN (m).
`CN1CCN(Cc2ccc(Nc3nc4ncc(C#N)c(Nc5ccc(Oc6ccccc6)cc5)c4s3)cc2)CC1` [Cpd 51, 2-[4-(4-methyl-piperazin-1-ylmethyl)-phenylamino]-7-(4-phenoxy-phenylamino)-thiazolo[4,5-b]pyridine-6-carbonitrile]: the inhibition (as a rule, the relative decrease from the control value, in per cent) at 1.6 µM on Lyn kinase (human) ((h), test concentration (2) 1.6 μM, read-out: LYN percent inhibition (h)) is 37%. The IC50 at HER-2 is more than 100000 nM. For the same molecule, the inhibition at 2 µM on EGFR (test concentration of 2 μM, read-out: EGFR percent inhibition) was found to be 0%. This molecule showed a c-SRC percent inhibition at c-Src kinase (human) (test concentration not marked (1 μM or 1.6 μM)) of 0%.
As to `CN(C)Cc1ccc(Nc2nc3ncc(C#N)c(Nc4cccc5c4OC(F)(F)O5)c3s2)cc1` [Cpd 25, 7-(2,2-difluoro-benzo[1,3]dioxol-4-ylamino)-2-(4-dimethylaminomethyl-phenylamino)-thiazolo[4,5-b]pyridine-6-carbonitrile], the IC50 was 224 nM on Lyn kinase (human); 92700 nM against HER-2; 43.3 nM at EGFR; 1410 nM against c-Src kinase (human); 790 nM on LYN (m).
